From US9663519B2, “Compounds useful as inhibitors of ATR kinase” (Vertex Pharmaceuticals Incorporated, priority 2013, dated 2017)

Legend:
full-length ATR = full-length ATR (Homo sapiens (Human), UniProt Q13535); assay: ATR Inhibition Assay (radioactive-phosphate incorporation); format: biochemical; conditions: Ki(app); 5 nM full-length ATR, 10 μM ATP, 25° C.
Protocol: Compounds were screened for their ability to inhibit ATR kinase using a radioactive-phosphate incorporation assay. Assays were carried out in a mixture of 50 mM Tris/HCl (pH 7.5), 10 mM MgCl2 and 1 mM DTT. Final substrate concentrations were 10 μM [γ-33P]ATP (3 mCi 33P ATP/mmol ATP, Perkin Elmer) and 800 μM target peptide (ASELPASQPQPFSAKKK (SEQ. ID NO: 1)).
Assays were carried out at 25° C. in the presence of 5 nM full-length ATR. An assay stock buffer solution was prepared containing all of the reagents listed above, with the exception of ATP and the test compound of interest. 13.5 μL of the stock solution was placed in a 96 well plate followed by addition of 2 μL of DMSO stock containing serial dilutions of the test compound (typically starting from a final concentration of 15 μM with 3-fold serial dilutions) in duplicate (final DMSO concentration 7%). The plate was pre-incubated for 10 minutes at 25° C. and the reaction initiated by addition of 15 μL [γ-33P]ATP (final concentration 10 μM).
The reaction was stopped after […] by the addition of 30 μL 0.1M phosphoric acid containing 2 mM ATP. A multiscreen phosphocellulose filter 96-well plate (Millipore, Cat no. MAPHN0B50) was pretreated with 100 μL 0.2M phosphoric acid prior to the addition of 45 μL of the stopped assay mixture. The plate was washed with 5×200 μL 0.2M phosphoric acid. After drying, 100 μL Optiphase ‘SuperMix’ liquid scintillation cocktail (Perkin Elmer) was added to the well prior to scintillation counting (1450 Microbeta Liquid Scintillation Counter, Wallac).
After removing mean background values for all of the data points, Ki(app) data were calculated from non-linear regression analysis of the initial rate data using the Prism software package (GraphPad Prism version 3.0cx for Macintosh, GraphPad Software, San Diego Calif., USA).

[1] = test system: HCT116 colorectal cancer cells; assay: Cisplatin Sensitization Assay (96 h cell viability MTS); format: cell-based; conditions: Cisplatin sensitization value: concentration of compound required to reduce the IC50 of Cisplatin alone by at least 3-fold; HCT116, 96 h MTS
Protocol: Compounds can be screened for their ability to sensitize HCT116 colorectal cancer cells to Cisplatin using a 96 h cell viability (MTS) assay. […] Compounds and Cisplatin are then both added simultaneously to the cell media in 2-fold serial dilutions from a top final concentration of 10 μM as a full matrix of concentrations in a final cell volume of 200 μl, and the cells are then incubated at 37° C. in 5% CO2. After 96 h, 40 μl of MTS reagent (Promega G358a) is added to each well and the cells are incubated for 1 h at 37° C. in 5% CO2. Finally, absorbance is measured at 490 nm using a SpectraMax Plus 384 reader (Molecular Devices) and the concentration of compound required to reduce the IC50 of Cisplatin alone by at least 3-fold (to 1 decimal place) can be reported.

full-length ATR, sequence (Q13535 whole entry): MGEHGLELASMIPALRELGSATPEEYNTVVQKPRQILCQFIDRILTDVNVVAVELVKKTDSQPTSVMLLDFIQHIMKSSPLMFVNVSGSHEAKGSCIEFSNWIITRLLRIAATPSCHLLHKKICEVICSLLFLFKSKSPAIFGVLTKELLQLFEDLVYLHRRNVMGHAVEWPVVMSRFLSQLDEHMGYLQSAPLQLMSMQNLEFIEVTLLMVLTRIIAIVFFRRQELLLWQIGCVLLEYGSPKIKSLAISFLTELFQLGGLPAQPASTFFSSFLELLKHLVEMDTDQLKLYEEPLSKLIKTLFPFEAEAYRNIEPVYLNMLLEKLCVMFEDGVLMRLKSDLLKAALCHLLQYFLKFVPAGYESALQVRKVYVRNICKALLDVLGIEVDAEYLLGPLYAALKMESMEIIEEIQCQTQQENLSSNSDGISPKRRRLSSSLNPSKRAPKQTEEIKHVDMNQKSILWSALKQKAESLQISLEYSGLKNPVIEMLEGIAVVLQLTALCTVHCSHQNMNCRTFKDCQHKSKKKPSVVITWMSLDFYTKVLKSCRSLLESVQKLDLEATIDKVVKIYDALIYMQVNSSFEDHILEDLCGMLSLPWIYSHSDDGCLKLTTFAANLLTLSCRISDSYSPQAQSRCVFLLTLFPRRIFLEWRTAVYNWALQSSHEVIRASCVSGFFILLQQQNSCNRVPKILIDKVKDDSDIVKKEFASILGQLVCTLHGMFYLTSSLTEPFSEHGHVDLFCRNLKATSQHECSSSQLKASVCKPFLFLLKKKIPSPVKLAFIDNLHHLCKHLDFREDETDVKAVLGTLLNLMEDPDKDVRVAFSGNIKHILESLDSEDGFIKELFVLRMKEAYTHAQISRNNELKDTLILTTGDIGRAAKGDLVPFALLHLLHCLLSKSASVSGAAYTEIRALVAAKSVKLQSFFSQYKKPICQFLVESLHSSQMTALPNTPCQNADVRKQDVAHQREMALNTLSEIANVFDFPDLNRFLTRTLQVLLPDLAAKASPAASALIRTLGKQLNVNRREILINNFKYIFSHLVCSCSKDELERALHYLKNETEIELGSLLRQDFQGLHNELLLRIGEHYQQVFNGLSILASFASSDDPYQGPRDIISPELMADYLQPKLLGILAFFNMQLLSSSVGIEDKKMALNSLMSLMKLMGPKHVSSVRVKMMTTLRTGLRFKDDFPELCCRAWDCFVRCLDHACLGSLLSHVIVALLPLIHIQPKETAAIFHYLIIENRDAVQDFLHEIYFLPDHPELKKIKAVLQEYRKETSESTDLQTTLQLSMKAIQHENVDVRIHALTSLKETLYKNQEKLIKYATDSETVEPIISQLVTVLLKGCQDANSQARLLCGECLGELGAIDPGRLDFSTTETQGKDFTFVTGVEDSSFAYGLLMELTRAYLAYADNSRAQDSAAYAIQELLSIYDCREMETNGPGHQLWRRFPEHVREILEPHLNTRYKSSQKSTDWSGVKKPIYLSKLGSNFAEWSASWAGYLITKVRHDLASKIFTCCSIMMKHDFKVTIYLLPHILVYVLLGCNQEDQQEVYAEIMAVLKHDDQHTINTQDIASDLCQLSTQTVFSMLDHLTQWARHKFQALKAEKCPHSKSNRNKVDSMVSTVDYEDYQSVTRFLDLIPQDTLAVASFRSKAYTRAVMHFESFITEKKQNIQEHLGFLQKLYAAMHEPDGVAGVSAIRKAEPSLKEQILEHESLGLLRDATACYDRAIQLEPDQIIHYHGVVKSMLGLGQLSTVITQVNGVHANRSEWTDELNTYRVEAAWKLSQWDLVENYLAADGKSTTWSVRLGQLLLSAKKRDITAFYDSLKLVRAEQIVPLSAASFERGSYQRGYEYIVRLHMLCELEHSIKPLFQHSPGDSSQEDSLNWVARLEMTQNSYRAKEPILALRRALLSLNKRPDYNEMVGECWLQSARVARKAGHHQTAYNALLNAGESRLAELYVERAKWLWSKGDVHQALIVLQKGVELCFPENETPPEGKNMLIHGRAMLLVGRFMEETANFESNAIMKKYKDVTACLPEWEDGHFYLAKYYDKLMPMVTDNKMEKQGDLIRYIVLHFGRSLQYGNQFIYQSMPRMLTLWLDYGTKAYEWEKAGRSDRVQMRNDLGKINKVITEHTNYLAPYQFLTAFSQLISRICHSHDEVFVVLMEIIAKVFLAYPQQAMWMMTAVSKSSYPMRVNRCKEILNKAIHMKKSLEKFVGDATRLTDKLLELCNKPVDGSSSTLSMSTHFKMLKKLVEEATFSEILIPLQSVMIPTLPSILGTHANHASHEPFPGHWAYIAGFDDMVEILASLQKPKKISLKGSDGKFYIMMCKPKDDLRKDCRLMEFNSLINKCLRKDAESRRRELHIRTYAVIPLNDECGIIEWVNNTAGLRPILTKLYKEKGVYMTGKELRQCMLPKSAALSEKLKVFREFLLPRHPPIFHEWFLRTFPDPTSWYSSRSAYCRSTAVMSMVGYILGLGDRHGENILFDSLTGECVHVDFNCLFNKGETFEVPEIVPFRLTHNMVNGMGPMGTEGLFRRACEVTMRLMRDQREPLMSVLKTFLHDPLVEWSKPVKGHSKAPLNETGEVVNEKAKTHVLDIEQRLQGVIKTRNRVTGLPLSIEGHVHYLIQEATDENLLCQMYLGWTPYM

Ki (full-length ATR)	Compound	Synergy with Cisplatin [1]
10 to 1000 nM	COc1ncncc1NC(=O)c1c(N)nn2cc3c(nc12)CCNC3 [Compound I-9, 2-amino-N-(4-methoxypyrimidin-5-yl)-5,6,7,8-tetrahydropyrazolo[1,5-a]pyrido[4,3-d]pyrimidine-3-carboxamide]	+ (Cisplatin sensitization value >0.2 μM but <5 μM)
10 to 1000 nM	CC(C)Oc1ncncc1NC(=O)c1c(N)nn2cc3c(nc12)CCNC3 [Compound I-10, 2-amino-N-(4-isopropoxypyrimidin-5-yl)-5,6,7,8-tetrahydropyrazolo[1,5-a]pyrido[4,3-d]pyrimidine-3-carboxamide]	++ (Cisplatin sensitization value >0.02 μM but <0.2 μM)
10 to 1000 nM	CN1CCc2nc3c(C(=O)Nc4cnccc4C4CC4)c(N)nn3cc2C1 [Compound I-11, 2-amino-N-(4-cyclopropylpyridin-3-yl)-7-methyl-5,6,7,8-tetrahydropyrazolo[1,5-a]pyrido[4,3-d]pyrimidine-3-carboxamide]	+++ (Cisplatin sensitization value of <0.02 μM)
10 to 1000 nM	CN1CCc2nc3c(C(=O)Nc4cncc(F)c4C4CC4)c(N)nn3cc2C1 [Compound I-12, 2-amino-N-(4-cyclopropyl-5-fluoropyridin-3-yl)-7-methyl-5,6,7,8-tetrahydropyrazolo[1,5-a]pyrido[4,3-d]pyrimidine-3-carboxamide]	++ (Cisplatin sensitization value >0.02 μM but <0.2 μM)
10 to 1000 nM	COc1ccncc1NC(=O)c1c(N)nn2cc3c(nc12)CCN(C)C3 [Compound I-13, 2-amino-N-(4-methoxypyridin-3-yl)-7-methyl-5,6,7,8-tetrahydropyrazolo[1,5-a]pyrido[4,3-d]pyrimidine-3-carboxamide]	++ (Cisplatin sensitization value >0.02 μM but <0.2 μM)
10 to 1000 nM	CN1CCc2nc3c(C(=O)Nc4cnccc4OC4COC4)c(N)nn3cc2C1 [Compound I-14, 2-amino-7-methyl-N-(4-(oxetan-3-yloxy)pyridin-3-yl)-5,6,7,8-tetrahydropyrazolo[1,5-a]pyrido[4,3-d]pyrimidine-3-carboxamide]	++ (Cisplatin sensitization value >0.02 μM but <0.2 μM)
10 to 1000 nM	CN1CCc2nc3c(C(=O)Nc4cncnc4C4CC4)c(N)nn3cc2C1 [Compound I-15, 2-amino-N-(4-cyclopropylpyrimidin-5-yl)-7-methyl-5,6,7,8-tetrahydropyrazolo[1,5-a]pyrido[4,3-d]pyrimidine-3-carboxamide]	++ (Cisplatin sensitization value >0.02 μM but <0.2 μM)
10 to 1000 nM	CC(C)Oc1ncncc1NC(=O)c1c(N)nn2cc3c(nc12)CCN(C)C3 [Compound I-16, 2-amino-N-(4-isopropoxypyrimidin-5-yl)-7-methyl-5,6,7,8-tetrahydropyrazolo[1,5-a]pyrido[4,3-d]pyrimidine-3-carboxamide]	++ (Cisplatin sensitization value >0.02 μM but <0.2 μM)
10 to 1000 nM	COc1ccncc1NC(=O)c1c(N)nn2cc3c(nc12)CCN(C(C)C)C3 [Compound I-17, 2-amino-7-isopropyl-N-(4-methoxypyridin-3-yl)-5,6,7,8-tetrahydropyrazolo[1,5-a]pyrido[4,3-d]pyrimidine-3-carboxamide]	++ (Cisplatin sensitization value >0.02 μM but <0.2 μM)
10 to 1000 nM	COc1ccncc1NC(=O)c1c(N)nn2cc3c(nc12)CCN(C1CC1)C3 [Compound I-18, 2-amino-7-cyclopropyl-N-(4-methoxypyridin-3-yl)-5,6,7,8-tetrahydropyrazolo[1,5-a]pyrido[4,3-d]pyrimidine-3-carboxamide]	++ (Cisplatin sensitization value >0.02 μM but <0.2 μM)
10 to 1000 nM	Cc1ccncc1NC(=O)c1c(N)nn2cc3c(nc12)CCN(C1COC1)C3 [Compound I-20, 2-amino-N-(4-methylpyridin-3-yl)-7-(oxetan-3-yl)-5,6,7,8-tetrahydropyrazolo[1,5-a]pyrido[4,3-d]pyrimidine-3-carboxamide]	++ (Cisplatin sensitization value >0.02 μM but <0.2 μM)
10 to 1000 nM	Nc1nn2cc3c(nc2c1C(=O)Nc1cnccc1C1CC1)CCN(C1COC1)C3 [Compound I-21, 2-amino-N-(4-cyclopropylpyridin-3-yl)-7-(oxetan-3-yl)-5,6,7,8-tetrahydropyrazolo[1,5-a]pyrido[4,3-d]pyrimidine-3-carboxamide]	++ (Cisplatin sensitization value >0.02 μM but <0.2 μM)
10 to 1000 nM	Nc1nn2cc3c(nc2c1C(=O)Nc1cncc(F)c1C1CC1)CCN(C1COC1)C3 [Compound I-22, 2-amino-N-(4-cyclopropyl-5-fluoropyridin-3-yl)-7-(oxetan-3-yl)-5,6,7,8-tetrahydropyrazolo[1,5-a]pyrido[4,3-d]pyrimidine-3-carboxamide]	++ (Cisplatin sensitization value >0.02 μM but <0.2 μM)
10 to 1000 nM	COc1ccncc1NC(=O)c1c(N)nn2cc3c(nc12)CCN(C1COC1)C3 [Compound I-24, 2-amino-N-(4-methoxypyridin-3-yl)-7-(oxetan-3-yl)-5,6,7,8-tetrahydropyrazolo[1,5-a]pyrido[4,3-d]pyrimidine-3-carboxamide]	++ (Cisplatin sensitization value >0.02 μM but <0.2 μM)
10 to 1000 nM	COc1cc(Cl)ncc1NC(=O)c1c(N)nn2cc3c(nc12)CCN(C1COC1)C3 [Compound I-25, 2-amino-N-(6-chloro-4-methoxypyridin-3-yl)-7-(oxetan-3-yl)-5,6,7,8-tetrahydropyrazolo[1,5-a]pyrido[4,3-d]pyrimidine-3-carboxamide]	++ (Cisplatin sensitization value >0.02 μM but <0.2 μM)
1000 to 5000 nM	Nc1nn2cc3c(nc2c1C(=O)Nc1cncnc1C1CC1)CCN(C1COC1)C3 [Compound I-26, 2-amino-N-(4-cyclopropylpyrimidin-5-yl)-7-(oxetan-3-yl)-5,6,7,8-tetrahydropyrazolo[1,5-a]pyrido[4,3-d]pyrimidine-3-carboxamide]	+ (Cisplatin sensitization value >0.2 μM but <5 μM)
10 to 1000 nM	COc1ncncc1NC(=O)c1c(N)nn2cc3c(nc12)CCN(C1COC1)C3 [Compound I-27, 2-amino-N-(4-methoxypyrimidin-5-yl)-7-(oxetan-3-yl)-5,6,7,8-tetrahydropyrazolo[1,5-a]pyrido[4,3-d]pyrimidine-3-carboxamide]	++ (Cisplatin sensitization value >0.02 μM but <0.2 μM)
10 to 1000 nM	COCCN1CCc2nc3c(C(=O)Nc4cnccc4C4CC4)c(N)nn3cc2C1 [Compound I-28, 2-amino-N-(4-cyclopropylpyridin-3-yl)-7-(2-methoxyethyl)-5,6,7,8-tetrahydropyrazolo[1,5-a]pyrido[4,3-d]pyrimidine-3-carboxamide]	++ (Cisplatin sensitization value >0.02 μM but <0.2 μM)
10 to 1000 nM	CN1CCc2nc3c(C(=O)Nc4cnccc4OCC(F)(F)F)c(N)nn3cc2C1 [Compound I-30, 2-amino-7-methyl-N-(4-(2,2,2-trifluoroethoxy)pyridin-3-yl)-5,6,7,8-tetrahydropyrazolo[1,5-a]pyrido[4,3-d]pyrimidine-3-carboxamide]	+++ (Cisplatin sensitization value of <0.02 μM)
10 to 1000 nM	COc1ccncc1NC(=O)c1c(N)nn2cc3c(nc12)C(C)(C)CNC3 [Compound I-31, 2-amino-N-(4-methoxypyridin-3-yl)-5,5-dimethyl-5,6,7,8-tetrahydropyrazolo[1,5-a]pyrido[4,3-d]pyrimidine-3-carboxamide]	++ (Cisplatin sensitization value >0.02 μM but <0.2 μM)

Compound	Ki (full-length ATR)	Synergy with Cisplatin [1]
COc1ccncc1NC(=O)c1c(N)nn2cc3c(nc12)CCN(CCF)C3 [Compound I-19, 2-amino-7-(2-fluoroethyl)-N-(4-methoxypyridin-3-yl)-5,6,7,8-tetrahydropyrazolo[1,5-a]pyrido[4,3-d]pyrimidine-3-carboxamide]	10 to 1000 nM	++ (Cisplatin sensitization value >0.02 μM but <0.2 μM)
